{
  "source": "the kinase profiling compilation of Christmann-Franck et al. (2016)",
  "assay_in_all_cases": "KINOMEscan competition binding",
  "conditions_in_all_cases": "compound 1.0 µM",
  "key": {"CRK2 (P.falciparum)": {"molecular_target": "CRK2 (P.falciparum) (UniProt P61075)"}, "PTK6 (human)": {"molecular_target": "PTK6 (human) (UniProt Q13882)"}, "[1]": {"test_system": "FGFR3 (human), P22607 [G697C]"}, "MAP2K5 (human)": {"molecular_target": "MAP2K5 (human) (UniProt Q13163)"}, "[2]": {"test_system": "ABL1 (human), P00519 [E255K]"}, "MAP3K10 (human)": {"molecular_target": "MAP3K10 (human) (UniProt Q02779)"}, "[3]": {"test_system": "PIK3CA (human), P42336 [E545K]"}, "CSNK2A2 (human)": {"molecular_target": "CSNK2A2 (human) (UniProt P19784)"}, "CAMK1G (human)": {"molecular_target": "CAMK1G (human) (UniProt Q96NX5)"}, "PDPK1 (human)": {"molecular_target": "PDPK1 (human) (UniProt O15530)"}, "CIT (human)": {"molecular_target": "CIT (human) (UniProt O14578)"}, "CPK1 (P.falciparum)": {"test_system": "CPK1 (P.falciparum)"}, "PAK1 (human)": {"molecular_target": "PAK1 (human) (UniProt Q13153)"}, "PHKG1 (human)": {"molecular_target": "PHKG1 (human) (UniProt Q16816)"}, "DSTYK (human)": {"molecular_target": "DSTYK (human) (UniProt Q6XUX3)"}, "NEK2 (human)": {"molecular_target": "NEK2 (human) (UniProt P51955)", "sequence (P51955 whole entry, looked up)": "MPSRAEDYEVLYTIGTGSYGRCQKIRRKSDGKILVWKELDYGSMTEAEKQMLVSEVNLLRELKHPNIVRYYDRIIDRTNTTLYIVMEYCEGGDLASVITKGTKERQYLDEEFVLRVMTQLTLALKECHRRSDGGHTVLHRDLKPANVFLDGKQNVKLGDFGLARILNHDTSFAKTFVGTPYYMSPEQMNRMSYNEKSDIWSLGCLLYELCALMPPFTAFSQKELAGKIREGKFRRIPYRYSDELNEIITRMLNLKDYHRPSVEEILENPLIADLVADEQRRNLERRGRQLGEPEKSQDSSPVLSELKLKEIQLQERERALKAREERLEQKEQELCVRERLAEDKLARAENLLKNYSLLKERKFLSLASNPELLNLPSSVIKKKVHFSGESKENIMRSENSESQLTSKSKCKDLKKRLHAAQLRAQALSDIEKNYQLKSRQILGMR"}, "RAF1 (human)": {"molecular_target": "RAF1 (human) (UniProt P04049)"}, "CDK14 (human)": {"molecular_target": "CDK14 (human) (UniProt O94921)"}, "EPHA4 (human)": {"molecular_target": "EPHA4 (human) (UniProt P54764)"}, "PIK3C2G (human)": {"molecular_target": "PIK3C2G (human) (UniProt O75747)"}, "RPS6KA4 KD2 (human)": {"molecular_target": "RPS6KA4 KD2 (human) (UniProt O75676)"}, "TRPM6 (human)": {"molecular_target": "TRPM6 (human) (UniProt Q9BX84)"}, "LRRK2 (human)": {"molecular_target": "LRRK2 (human) (UniProt Q5S007)"}, "GSK3B (human)": {"molecular_target": "GSK3B (human) (UniProt P49841)", "sequence (P49841 whole entry, looked up)": "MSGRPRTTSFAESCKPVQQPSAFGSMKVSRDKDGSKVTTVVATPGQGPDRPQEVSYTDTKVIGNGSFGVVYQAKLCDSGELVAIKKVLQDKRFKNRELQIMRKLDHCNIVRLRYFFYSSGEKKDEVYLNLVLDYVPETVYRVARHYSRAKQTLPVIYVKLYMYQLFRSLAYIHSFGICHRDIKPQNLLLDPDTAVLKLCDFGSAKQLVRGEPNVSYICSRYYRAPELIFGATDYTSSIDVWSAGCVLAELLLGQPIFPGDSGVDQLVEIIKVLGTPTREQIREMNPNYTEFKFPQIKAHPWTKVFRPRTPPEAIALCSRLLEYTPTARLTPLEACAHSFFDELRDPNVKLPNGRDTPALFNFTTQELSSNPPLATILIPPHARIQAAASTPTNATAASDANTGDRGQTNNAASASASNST"}, "PKN1 (human)": {"molecular_target": "PKN1 (human) (UniProt Q16512)", "sequence (Q16512 whole entry, looked up)": "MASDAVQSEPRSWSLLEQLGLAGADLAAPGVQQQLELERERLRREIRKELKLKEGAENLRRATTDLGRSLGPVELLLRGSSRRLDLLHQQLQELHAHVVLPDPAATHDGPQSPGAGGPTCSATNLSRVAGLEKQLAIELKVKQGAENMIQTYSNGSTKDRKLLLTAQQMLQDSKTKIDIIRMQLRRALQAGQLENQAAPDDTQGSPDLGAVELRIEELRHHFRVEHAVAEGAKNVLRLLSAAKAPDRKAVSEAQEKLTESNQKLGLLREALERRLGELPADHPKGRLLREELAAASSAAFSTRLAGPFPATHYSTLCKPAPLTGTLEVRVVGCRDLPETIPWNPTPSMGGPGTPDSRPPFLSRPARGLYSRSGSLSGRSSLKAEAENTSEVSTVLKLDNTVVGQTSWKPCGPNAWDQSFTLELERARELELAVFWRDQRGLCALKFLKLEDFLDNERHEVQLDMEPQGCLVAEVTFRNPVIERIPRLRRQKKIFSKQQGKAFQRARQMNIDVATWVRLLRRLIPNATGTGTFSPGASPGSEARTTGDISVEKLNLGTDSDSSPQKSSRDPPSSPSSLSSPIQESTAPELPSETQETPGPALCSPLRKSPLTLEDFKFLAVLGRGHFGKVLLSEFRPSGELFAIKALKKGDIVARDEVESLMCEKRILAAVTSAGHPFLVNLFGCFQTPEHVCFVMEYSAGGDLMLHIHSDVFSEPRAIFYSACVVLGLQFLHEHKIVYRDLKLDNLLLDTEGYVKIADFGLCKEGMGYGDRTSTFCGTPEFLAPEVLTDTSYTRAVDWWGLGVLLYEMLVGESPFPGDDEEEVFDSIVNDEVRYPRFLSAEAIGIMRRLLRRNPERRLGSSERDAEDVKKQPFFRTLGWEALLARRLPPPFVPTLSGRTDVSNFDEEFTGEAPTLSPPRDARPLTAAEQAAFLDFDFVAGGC"}, "EPHA7 (human)": {"molecular_target": "EPHA7 (human) (UniProt Q15375)"}, "RPS6KA6 KD1 (human)": {"molecular_target": "RPS6KA6 KD1 (human) (UniProt Q9UK32)"}, "ROS1 (human)": {"molecular_target": "ROS1 (human) (UniProt P08922)", "sequence (P08922 whole entry, looked up)": "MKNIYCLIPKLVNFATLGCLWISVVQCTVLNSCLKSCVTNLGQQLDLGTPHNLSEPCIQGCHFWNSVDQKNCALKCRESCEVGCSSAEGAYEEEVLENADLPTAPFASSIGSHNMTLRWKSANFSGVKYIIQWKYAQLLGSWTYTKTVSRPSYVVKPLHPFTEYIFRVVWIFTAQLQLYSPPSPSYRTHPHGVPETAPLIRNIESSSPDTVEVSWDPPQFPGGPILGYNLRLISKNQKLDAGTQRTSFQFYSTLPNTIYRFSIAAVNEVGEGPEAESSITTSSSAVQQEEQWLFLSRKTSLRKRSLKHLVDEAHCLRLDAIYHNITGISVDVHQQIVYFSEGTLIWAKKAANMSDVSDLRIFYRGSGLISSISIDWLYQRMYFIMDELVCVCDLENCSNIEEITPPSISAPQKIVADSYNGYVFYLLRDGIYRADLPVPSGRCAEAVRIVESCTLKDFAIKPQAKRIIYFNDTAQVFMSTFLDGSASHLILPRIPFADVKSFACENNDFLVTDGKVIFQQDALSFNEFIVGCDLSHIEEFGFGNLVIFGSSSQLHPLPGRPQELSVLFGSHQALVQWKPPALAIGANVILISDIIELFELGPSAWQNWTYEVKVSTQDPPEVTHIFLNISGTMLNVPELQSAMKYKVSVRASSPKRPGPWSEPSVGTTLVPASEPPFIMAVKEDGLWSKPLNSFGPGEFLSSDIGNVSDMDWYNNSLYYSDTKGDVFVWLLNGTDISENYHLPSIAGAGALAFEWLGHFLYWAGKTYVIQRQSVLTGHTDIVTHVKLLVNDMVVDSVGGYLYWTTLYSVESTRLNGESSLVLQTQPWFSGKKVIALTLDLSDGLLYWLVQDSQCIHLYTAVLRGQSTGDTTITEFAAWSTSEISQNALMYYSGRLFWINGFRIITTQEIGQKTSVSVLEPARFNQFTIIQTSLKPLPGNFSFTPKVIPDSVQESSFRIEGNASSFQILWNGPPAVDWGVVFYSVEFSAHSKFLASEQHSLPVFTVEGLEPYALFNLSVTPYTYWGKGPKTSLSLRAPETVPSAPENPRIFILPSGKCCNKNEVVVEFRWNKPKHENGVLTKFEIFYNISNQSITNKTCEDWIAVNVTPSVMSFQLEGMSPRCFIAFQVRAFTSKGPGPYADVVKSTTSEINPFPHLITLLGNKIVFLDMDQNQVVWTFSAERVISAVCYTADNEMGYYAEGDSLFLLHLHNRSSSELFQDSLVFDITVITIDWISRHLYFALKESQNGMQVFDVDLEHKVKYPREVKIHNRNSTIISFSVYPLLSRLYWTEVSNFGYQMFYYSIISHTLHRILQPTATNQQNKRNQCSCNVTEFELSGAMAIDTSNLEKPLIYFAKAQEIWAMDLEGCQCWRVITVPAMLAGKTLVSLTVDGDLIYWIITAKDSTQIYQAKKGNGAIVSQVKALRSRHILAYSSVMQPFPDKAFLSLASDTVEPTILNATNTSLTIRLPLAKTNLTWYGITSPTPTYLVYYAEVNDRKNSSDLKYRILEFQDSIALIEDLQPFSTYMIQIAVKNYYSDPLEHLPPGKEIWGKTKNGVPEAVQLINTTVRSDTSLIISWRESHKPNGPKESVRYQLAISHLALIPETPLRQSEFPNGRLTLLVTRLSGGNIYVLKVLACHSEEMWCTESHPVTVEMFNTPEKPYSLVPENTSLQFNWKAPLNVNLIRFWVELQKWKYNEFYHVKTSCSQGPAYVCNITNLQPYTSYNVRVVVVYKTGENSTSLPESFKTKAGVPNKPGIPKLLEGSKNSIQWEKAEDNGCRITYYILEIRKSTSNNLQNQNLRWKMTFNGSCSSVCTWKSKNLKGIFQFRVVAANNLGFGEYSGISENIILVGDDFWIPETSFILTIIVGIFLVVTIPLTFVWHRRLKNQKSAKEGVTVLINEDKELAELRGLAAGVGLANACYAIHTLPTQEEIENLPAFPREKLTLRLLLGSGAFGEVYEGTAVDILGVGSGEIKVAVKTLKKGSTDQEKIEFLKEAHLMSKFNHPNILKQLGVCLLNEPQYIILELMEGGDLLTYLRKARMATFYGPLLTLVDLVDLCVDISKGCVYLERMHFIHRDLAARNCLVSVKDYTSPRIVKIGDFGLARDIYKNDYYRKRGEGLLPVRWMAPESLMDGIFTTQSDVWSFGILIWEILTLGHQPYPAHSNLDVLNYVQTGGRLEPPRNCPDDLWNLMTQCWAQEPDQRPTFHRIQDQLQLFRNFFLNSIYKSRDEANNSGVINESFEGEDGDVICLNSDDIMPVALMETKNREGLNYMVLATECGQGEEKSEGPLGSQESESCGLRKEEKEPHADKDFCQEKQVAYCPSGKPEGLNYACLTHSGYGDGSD"}, "PRKD1 (human)": {"molecular_target": "PRKD1 (human) (UniProt Q15139)"}, "TLK2 (human)": {"molecular_target": "TLK2 (human) (UniProt Q86UE8)", "sequence (Q86UE8 whole entry, looked up)": "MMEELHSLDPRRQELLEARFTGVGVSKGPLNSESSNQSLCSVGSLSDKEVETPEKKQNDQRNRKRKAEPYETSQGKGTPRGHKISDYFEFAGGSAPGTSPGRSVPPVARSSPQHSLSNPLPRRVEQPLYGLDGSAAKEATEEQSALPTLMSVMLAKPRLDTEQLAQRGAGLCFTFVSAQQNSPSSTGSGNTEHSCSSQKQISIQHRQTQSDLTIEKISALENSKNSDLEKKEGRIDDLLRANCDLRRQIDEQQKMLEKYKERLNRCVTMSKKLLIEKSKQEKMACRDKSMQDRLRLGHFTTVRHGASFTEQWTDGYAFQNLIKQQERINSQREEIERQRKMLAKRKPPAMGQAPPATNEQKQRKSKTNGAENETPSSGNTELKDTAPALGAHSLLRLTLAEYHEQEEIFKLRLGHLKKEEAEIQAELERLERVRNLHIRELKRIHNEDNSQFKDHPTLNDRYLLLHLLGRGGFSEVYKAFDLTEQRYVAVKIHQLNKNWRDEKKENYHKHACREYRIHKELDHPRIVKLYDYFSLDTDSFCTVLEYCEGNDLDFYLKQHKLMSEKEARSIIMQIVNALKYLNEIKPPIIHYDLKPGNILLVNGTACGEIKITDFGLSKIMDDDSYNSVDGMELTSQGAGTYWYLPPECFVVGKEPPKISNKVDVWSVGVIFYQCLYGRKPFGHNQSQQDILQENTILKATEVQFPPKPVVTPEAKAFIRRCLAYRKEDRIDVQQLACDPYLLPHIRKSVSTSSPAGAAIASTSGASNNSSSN"}, "MINK1 (human)": {"molecular_target": "MINK1 (human) (UniProt Q8N4C8)"}, "CAMK2B (human)": {"molecular_target": "CAMK2B (human) (UniProt Q13554)"}, "FER (human)": {"molecular_target": "FER (human) (UniProt P16591)"}, "[4]": {"test_system": "LRRK2 (human), Q5S007 [G2019S]"}, "[5]": {"test_system": "ABL1 (human), P00519 [Y253F]"}, "CLK2 (human)": {"molecular_target": "CLK2 (human) (UniProt P49760)"}, "[6]": {"test_system": "ABL1 (human), P00519 [M351T]"}, "SGK110 (human)": {"molecular_target": "SGK110 (human) (UniProt P0C264)"}, "ACVR2A (human)": {"molecular_target": "ACVR2A (human) (UniProt P27037)"}, "ITK (human)": {"molecular_target": "ITK (human) (UniProt Q08881)"}, "DCLK2 (human)": {"molecular_target": "DCLK2 (human) (UniProt Q8N568)"}, "CDKL3 (human)": {"molecular_target": "CDKL3 (human) (UniProt Q8IVW4)"}, "MATK (human)": {"molecular_target": "MATK (human) (UniProt P42679)"}},
  "data": [
    {"compound": "COCCNCCCn1c(C(=O)CF)c(-c2ccc(C)cc2)c2c(N)ncnc21", "values": [
      {"measurement": "kinase still bound, per cent of control", "setting": "CRK2 (P.falciparum)", "result": 100, "unit": "%"},
      {"measurement": "kinase still bound, per cent of control", "setting": "PTK6 (human)", "result": 90, "unit": "%"},
      {"measurement": "kinase still bound, per cent of control", "setting": "[1]", "result": 91, "unit": "%"},
      {"measurement": "kinase still bound, per cent of control", "setting": "MAP2K5 (human)", "result": 46, "unit": "%"},
      {"measurement": "kinase still bound, per cent of control", "setting": "[2]", "result": 90, "unit": "%"},
      {"measurement": "kinase still bound, per cent of control", "setting": "MAP3K10 (human)", "result": 77, "unit": "%"},
      {"measurement": "kinase still bound, per cent of control", "setting": "[3]", "result": 100, "unit": "%"},
      {"measurement": "kinase still bound, per cent of control", "setting": "CSNK2A2 (human)", "result": 99, "unit": "%"},
      {"measurement": "kinase still bound, per cent of control", "setting": "CAMK1G (human)", "result": 97, "unit": "%"},
      {"measurement": "kinase still bound, per cent of control", "setting": "PDPK1 (human)", "result": 100, "unit": "%"},
      {"measurement": "kinase still bound, per cent of control", "setting": "CIT (human)", "result": 93, "unit": "%"},
      {"measurement": "kinase still bound, per cent of control", "setting": "CPK1 (P.falciparum)", "result": 89, "unit": "%"},
      {"measurement": "kinase still bound, per cent of control", "setting": "PAK1 (human)", "result": 89, "unit": "%"},
      {"measurement": "kinase still bound, per cent of control", "setting": "PHKG1 (human)", "result": 100, "unit": "%"},
      {"measurement": "kinase still bound, per cent of control", "setting": "DSTYK (human)", "result": 100, "unit": "%"},
      {"measurement": "kinase still bound, per cent of control", "setting": "NEK2 (human)", "result": 98, "unit": "%"},
      {"measurement": "kinase still bound, per cent of control", "setting": "RAF1 (human)", "result": 99, "unit": "%"},
      {"measurement": "kinase still bound, per cent of control", "setting": "CDK14 (human)", "result": 100, "unit": "%"},
      {"measurement": "kinase still bound, per cent of control", "setting": "EPHA4 (human)", "result": 96, "unit": "%"},
      {"measurement": "kinase still bound, per cent of control", "setting": "PIK3C2G (human)", "result": 92, "unit": "%"},
      {"measurement": "kinase still bound, per cent of control", "setting": "RPS6KA4 KD2 (human)", "result": 100, "unit": "%"},
      {"measurement": "kinase still bound, per cent of control", "setting": "TRPM6 (human)", "result": 81, "unit": "%"},
      {"measurement": "kinase still bound, per cent of control", "setting": "LRRK2 (human)", "result": 100, "unit": "%"},
      {"measurement": "kinase still bound, per cent of control", "setting": "GSK3B (human)", "result": 100, "unit": "%"},
      {"measurement": "kinase still bound, per cent of control", "setting": "PKN1 (human)", "result": 100, "unit": "%"},
      {"measurement": "kinase still bound, per cent of control", "setting": "EPHA7 (human)", "result": 92, "unit": "%"},
      {"measurement": "kinase still bound, per cent of control", "setting": "RPS6KA6 KD1 (human)", "result": 90, "unit": "%"},
      {"measurement": "kinase still bound, per cent of control", "setting": "ROS1 (human)", "result": 100, "unit": "%"},
      {"measurement": "kinase still bound, per cent of control", "setting": "PRKD1 (human)", "result": 100, "unit": "%"},
      {"measurement": "kinase still bound, per cent of control", "setting": "TLK2 (human)", "result": 95, "unit": "%"},
      {"measurement": "kinase still bound, per cent of control", "setting": "MINK1 (human)", "result": 100, "unit": "%"},
      {"measurement": "kinase still bound, per cent of control", "setting": "CAMK2B (human)", "result": 97, "unit": "%"},
      {"measurement": "kinase still bound, per cent of control", "setting": "FER (human)", "result": 84, "unit": "%"},
      {"measurement": "kinase still bound, per cent of control", "setting": "[4]", "result": 100, "unit": "%"},
      {"measurement": "kinase still bound, per cent of control", "setting": "[5]", "result": 94, "unit": "%"},
      {"measurement": "kinase still bound, per cent of control", "setting": "CLK2 (human)", "result": 100, "unit": "%"},
      {"measurement": "kinase still bound, per cent of control", "setting": "[6]", "result": 96, "unit": "%"},
      {"measurement": "kinase still bound, per cent of control", "setting": "SGK110 (human)", "result": 100, "unit": "%"},
      {"measurement": "kinase still bound, per cent of control", "setting": "ACVR2A (human)", "result": 100, "unit": "%"},
      {"measurement": "kinase still bound, per cent of control", "setting": "ITK (human)", "result": 100, "unit": "%"},
      {"measurement": "kinase still bound, per cent of control", "setting": "DCLK2 (human)", "result": 100, "unit": "%"},
      {"measurement": "kinase still bound, per cent of control", "setting": "CDKL3 (human)", "result": 88, "unit": "%"},
      {"measurement": "kinase still bound, per cent of control", "setting": "MATK (human)", "result": 100, "unit": "%"}
    ]}
  ]
}
